From US20260137698A1, “CYCLIN-DEPENDENT KINASE 7 INHIBITORS” (JOINT STOCK COMPANY «BIOCAD», priority 2022, published 2026)
Read-outs that look alike come from different tables or passages of the source.

Assays:
[1] = Microsomal stability in rat liver microsomes (RLM); assay type: in vitro ADME; conditions: rat liver microsomes 0.5 mg/ml, 1 μM compound, NADPH
Method: (§1) The procedure for investigating the metabolism of selected compounds was carried out in microsomal fractions of the liver (of rats, mice, humans) in the presence of a phase I metabolism cofactor (NADPH).
(§2) The rate of enzymatic decomposition of the compound in liver microsomes in in vitro analysis was determined by keeping a reaction mixture comprising 0.5 mg/ml of pooled human, rat or mouse liver microsomes, 1 μM test compound, 1.5 mM […] (Carbosynth, UK, cat. no. NN108711101) and 1.5 mM magnesium chloride in 0.1 M sodium phosphate buffer (pH 7.4) in a solid-state thermostat at 37° C. (XenoTech, USA, order no. H2610, cat. no. R1000, cat. no. M1000). Incubation was carried out in three replicates.
(§3) To determine the stability of compounds under sample preparation conditions, an aliquot in two replicates with the test compound and a microsomal fraction devoid of the NADPH cofactor, which was incubated for 40 minutes at 37° C.
(§4) Reactions were stopped at 0, 10, 20, 30 and 40 min time points by way of adding an ice mixture of acetonitrile:methanol (3:1) comprising an internal standard.
(§5) Samples were then centrifuged to remove the precipitated protein, supernatants were analyzed using HPLC-MS/MS to determine in vitro clearance (CLint) of the compounds. The Agilent 6410 mass spectrometer (Agilent, USA) combined with the Agilent 1260 Infinity II HPLC liquid chromatograph (Agilent, USA) and a cooling autosampler controlled by MassHunter software (Agilent, USA) was used as an HPLC-MS/MS system. Chromatographic analysis was performed on a C18 reversed-phase HPLC column (Agilent, Waters or equivalent) in a gradient elution mode in a system of mobile phases: 0.1% formic acid in water/0.1% formic acid in acetonitrile, flow rate: 0.5 ml/min, column T=35° C. Mass spectrometric detection was performed with electrospray ionization in multiple reaction monitoring mode. Precursor ions, fragment ions and collision energies for each substance were selected experimentally.
(§6) A graph of dependence of the logarithmic ratio between substance's peak area and internal standard's peak area vs time was built. The dependent coefficient of this line corresponded to the elimination rate constant k, on the basis of which the in vitro clearance CLint was calculated:
(§7) Based on resulting in vitro clearance CLint values, the microsomal stability of the selected compounds for humans, rats and mice was concluded.

CDK13/Cyclin K = CDK13/Cyclin K (Homo sapiens, UniProt Q14004); experiment: Inhibition of CDK13/Cyclin K kinase activity (ADP-Glo); assay type: biochemical
Chain of CDK13/Cyclin K (Q14004 whole entry): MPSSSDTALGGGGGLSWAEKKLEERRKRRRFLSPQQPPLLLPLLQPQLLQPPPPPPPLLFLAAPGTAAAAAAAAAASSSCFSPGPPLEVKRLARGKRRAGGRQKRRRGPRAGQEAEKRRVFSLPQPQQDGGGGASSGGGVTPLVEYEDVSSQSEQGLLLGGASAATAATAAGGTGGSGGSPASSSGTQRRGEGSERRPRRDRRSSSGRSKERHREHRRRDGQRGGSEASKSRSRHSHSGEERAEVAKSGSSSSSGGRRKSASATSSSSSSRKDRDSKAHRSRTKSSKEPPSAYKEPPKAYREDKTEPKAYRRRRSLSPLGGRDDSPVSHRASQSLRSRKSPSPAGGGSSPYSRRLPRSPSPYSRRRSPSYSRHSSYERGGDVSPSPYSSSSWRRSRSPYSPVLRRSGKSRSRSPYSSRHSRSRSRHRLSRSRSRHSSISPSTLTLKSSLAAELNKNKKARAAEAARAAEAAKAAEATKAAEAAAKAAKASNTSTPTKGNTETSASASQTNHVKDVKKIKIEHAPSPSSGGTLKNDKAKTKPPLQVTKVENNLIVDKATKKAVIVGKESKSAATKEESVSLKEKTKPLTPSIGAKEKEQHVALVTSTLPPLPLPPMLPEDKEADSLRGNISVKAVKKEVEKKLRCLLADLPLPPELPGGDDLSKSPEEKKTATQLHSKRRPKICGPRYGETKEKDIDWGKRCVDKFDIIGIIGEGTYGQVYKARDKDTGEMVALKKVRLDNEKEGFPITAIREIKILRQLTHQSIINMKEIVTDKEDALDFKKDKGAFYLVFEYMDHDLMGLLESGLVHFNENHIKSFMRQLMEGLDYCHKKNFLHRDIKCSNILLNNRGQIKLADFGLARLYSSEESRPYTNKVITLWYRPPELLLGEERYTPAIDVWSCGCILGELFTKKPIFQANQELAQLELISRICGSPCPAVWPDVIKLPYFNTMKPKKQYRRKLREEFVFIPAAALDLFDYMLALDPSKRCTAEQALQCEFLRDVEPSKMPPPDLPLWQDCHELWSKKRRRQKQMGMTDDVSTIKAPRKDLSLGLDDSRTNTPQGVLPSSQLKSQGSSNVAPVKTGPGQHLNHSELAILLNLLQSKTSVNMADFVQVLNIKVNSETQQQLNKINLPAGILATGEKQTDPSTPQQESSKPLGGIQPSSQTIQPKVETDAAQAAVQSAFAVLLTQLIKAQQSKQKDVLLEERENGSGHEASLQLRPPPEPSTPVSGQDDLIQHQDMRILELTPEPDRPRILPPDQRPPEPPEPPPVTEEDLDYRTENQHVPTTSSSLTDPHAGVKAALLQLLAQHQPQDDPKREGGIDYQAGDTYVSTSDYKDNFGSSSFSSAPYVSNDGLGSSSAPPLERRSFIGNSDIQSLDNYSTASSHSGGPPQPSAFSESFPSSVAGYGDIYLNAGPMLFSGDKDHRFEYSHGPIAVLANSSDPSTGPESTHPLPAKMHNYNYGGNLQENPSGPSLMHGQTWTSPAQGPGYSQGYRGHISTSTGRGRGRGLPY
Chain of CDK13/Cyclin K (O75909 whole entry partner): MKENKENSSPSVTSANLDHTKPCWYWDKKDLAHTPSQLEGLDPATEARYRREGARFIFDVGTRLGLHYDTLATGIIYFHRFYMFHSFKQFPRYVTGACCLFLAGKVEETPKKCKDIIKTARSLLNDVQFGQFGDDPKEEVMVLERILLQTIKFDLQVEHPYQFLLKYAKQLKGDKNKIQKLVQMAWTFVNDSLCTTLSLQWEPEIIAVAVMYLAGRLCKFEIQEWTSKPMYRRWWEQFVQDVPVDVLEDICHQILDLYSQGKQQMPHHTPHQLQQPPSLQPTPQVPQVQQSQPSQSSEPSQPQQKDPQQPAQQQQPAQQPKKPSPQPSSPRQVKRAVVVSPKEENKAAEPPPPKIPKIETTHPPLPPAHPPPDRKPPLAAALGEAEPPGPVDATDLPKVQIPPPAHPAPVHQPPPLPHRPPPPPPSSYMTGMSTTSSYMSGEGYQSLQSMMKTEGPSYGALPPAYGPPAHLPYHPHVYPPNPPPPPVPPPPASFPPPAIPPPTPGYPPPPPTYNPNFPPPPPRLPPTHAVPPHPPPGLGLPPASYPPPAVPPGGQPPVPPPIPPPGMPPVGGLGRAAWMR
Method: Measurements were carried out in a 5 μl reaction volume using a 384-well plate (Corning Inc., order no. 4513). The analyzed substances were titrated from 50 μM in increments of 4 at 11 concentration points in a normal strength kinase buffer A (Thermo Fisher Scientific Inc, cat. no. PV3189) supplemented with DTT (Sigma, orde. no. 646563-10X.5ML) and prepared with water (Panreac, order no. 701074). Kinase was diluted in an analogous buffer, mixed with test compounds in plate wells and preincubated for 10 minutes at 25° C. Following incubation, a mixture of reaction substrate (CDKtide (SignalChem, order no. C06-58) or Histone H1 (SignalChem, order no. H10-54N) or PDKtide (SignalChem, order no. P10-58) and ATP (SignalChem, order no. V915B) prepared on a normal strength kinase buffer A was added. 1% solution of dimethyl sulfoxide (DMSO) (Sigma-Aldrich, order no. D2438) in the reaction volume was used as a negative control. The final concentrations of all reaction components are shown in Table 5. The plate was centrifuged at 400 rcf (Eppendorf, 5804 R) for 1 minute and incubated for 40-60 minutes at 25° C. The amount of ATP consumed in the kinase reaction was then measured using the ADP-Glo™ detection system. Luminescence signal was measured using Spark 20M tablet multifunction reader (Tecan Group Ltd, Switzerland). IC50 value was calculated using Magellan 7.2 (Tecan Group Ltd, Switzerland) by approximating experimental points by four-parameter model with the optimization by Levenberg-Marquardt:
[formula] • where A is the upper asymptote; D is the lower asymptote; C is IC50, half-maximal inhibitory concentration of kinase, nM; B is the curvature (slope).

[2] = Microsomal stability in mouse liver microsomes (MLM); assay type: in vitro ADME; conditions: mouse liver microsomes 0.5 mg/ml, 1 μM compound, NADPH
Method: as §1, §2, §3, §4, §5, §6, §7

[3] = mean of multiple measurement series, ATP 10 μM, read-out: CDK13/Cyclin K IC50
[4] = mean value from several measurements, read-out: IC50 CDK13/Cyclin K

Row | RLM Clint [1] | IC50 (CDK13/Cyclin K; [3]) [nM] | IC50 (CDK13/Cyclin K; [4]) [nM] | MLM Clint [2] | Structure (SMILES)
1 | A (Clint < 20 μl/(min · mg of protein)) |  |  |  | CCN1CCCc2c(-c3nc(N[C@H]4CCC(C)(C)NC4)ncc3C(F)(F)F)c[nH]c2C1=O [CDK7_1259, 3-(2-{[(3S)-6,6-dimethylpiperidin-3-yl]amino}-5-(trifluoromethyl)py-rimidin-4-yl)-7-ethyl-1H,4H,5H,6H,7H, 8H-pyrrolo[2,3-c]azepin-8-one]
2 | A (Clint < 20 μl/(min · mg of protein)) | 203 | > 200 | A (Clint < 20 μl/(min · mg of protein)) | CC1(C)CC[C@H](Nc2ncc(C(F)(F)F)c(-c3c[nH]c4c3CCCN(C3CC3)C4=O)n2)CN1 [CDK7_1225, 7-cyclopropyl-3-(2-{[(3S)-6,6-dimethylpiperidin-3-yl]amino}-5-(trifluoromethyl)py-rimidin-4-yl)-1H,4H,5H,6H,7H, 8H-pyrrolo[2,3-c]azepin-8-one]
3 | A (Clint < 20 μl/(min · mg of protein)) |  |  |  | O=C1c2[nH]cc(-c3nc(NC4CCCNC4)ncc3C(F)(F)F)c2CCCN1C1CC1 (centres unmarked) [CDK7_1188]
4 |  | 25 | 5 to 50 |  | Cn1cc(-n2ccc3c(-c4nc(N[C@H]5CCC(C)(C)NC5)ncc4C(F)(F)F)c[nH]c3c2=O)cn1 [CDK7_1123, 3-(2-{[(3S)-6,6-dimethylpiperidin-3-yl]amino}-5-(trifluoromethyl)py-rimidin-4-yl)-6-(1-methyl-1H-pyrazol-4-yl)-1H,6H,7H-pyrrolo[2,3-c]pyridin-7-one]
5 | A (Clint < 20 μl/(min · mg of protein)) | 20 | 5 to 50 | A (Clint < 20 μl/(min · mg of protein)) | CN1CCCc2c(-c3nc(N[C@H]4CCCNC4)ncc3C(F)(F)F)c[nH]c2C1=O [CDK7_953, 7-methyl-3-(2-{[(3S)-piperidin-3-yl]amino}-5-(trifluoromethyl)py-rimidin-4-yl)-1H,4H,5H,6H,7H, 8H-pyrrolo[2,3-c]azepin-8-one]
6 | A (Clint < 20 μl/(min · mg of protein)) | 242 | > 200 | A (Clint < 20 μl/(min · mg of protein)) | CC(C)N1CCCc2c(-c3nc(N[C@H]4CCC(C)(C)NC4)ncc3C(F)(F)F)c[nH]c2C1=O [CDK7_1229, 3-(2-{[(3S)-6,6-dimethylpiperidin-3-yl]amino}-5-(trifluoromethyl)py-rimidin-4-yl)-7-(propan-2-yl)-1H,4H,5H,6H,7H, 8H-pyrrolo[2,3-c]azepin-8-one]
7 | A (Clint < 20 μl/(min · mg of protein)) | 81 | 50 to 200 | A (Clint < 20 μl/(min · mg of protein)) | CN1CCCc2c(-c3nc(N[C@H]4CCC(C)(C)NC4)ncc3C(F)(F)F)c[nH]c2C1=O [CDK7_1187, 3-(2-{[(3S)-6,6-dimethylpiperidin-3-yl]amino}-5-(trifluoromethyl)py-rimidin-4-yl)-7-methyl-1H,4H,5H,6H,7H, 8H-pyrrolo[2,3-c]azepin-8-one]
8 | A (Clint < 20 μl/(min · mg of protein)) |  |  |  | CC1(C)CC[C@H](Nc2ncc(C(F)(F)F)c(-c3c[nH]c4c3CCCN(CC3CC3)C4=O)n2)CN1 [CDK7_1227, 7-(cyclopropylmeth-yl)-3-(2-{[(3S)-6,6-dimethylpiperidin-3-yl]amino}-5-(trifluoromethyl)py-rimidin-4-yl)-1H,4H,5H,6H,7H, 8H-pyrrolo[2,3-c]azepin-8-one]

Row | Structure (SMILES) | RLM Clint [1] | IC50 (CDK13/Cyclin K; [3]) [nM] | IC50 (CDK13/Cyclin K; [4]) [nM] | MLM Clint [2]
9 | O=C1c2[nH]cc(-c3nc(N[C@H]4CCC5(CC5)NC4)ncc3C(F)(F)F)c2CCCN1C1CC1 [CDK7_1276, 3-(2-{[(6S)-4-azaspiro[2.5]octan-6-yl]amino}-5-(trifluoromethyl)py-rimidin-4-yl)-7-cyclopropyl-1H,4H,5H,6H,7H, 8H-pyrrolo[2,3-c]azepin-8-one] | B (50 μl/(min · mg of protein) > Clint > 20 μl/(min · mg of protein)) | 152 | 50 to 200 | B (50 μl/(min · mg of protein) > Clint > 20 μl/(min · mg of protein))
10 | CC(C)N1CCCc2c(-c3nc(N[C@H]4CCC5(CC5)NC4)ncc3C(F)(F)F)c[nH]c2C1=O [CDK7_1277, 3-(2-{[(6S)-4-azaspiro[2.5]octan-6-yl]amino}-5-(trifluoromethyl)py-rimidin-4-yl)-7-(propan-2-yl)-1H,4H,5H,6H,7H, 8H-pyrrolo[2,3-c]azepin-8-one] | B (50 μl/(min · mg of protein) > Clint > 20 μl/(min · mg of protein)) | 425 | > 200 | B (50 μl/(min · mg of protein) > Clint > 20 μl/(min · mg of protein))
